Assay results: patent publication EP4678629A1, “IONIZABLE LIPID MOLECULE, PREPARATION METHOD THEREFOR AND USE THEREOF” (Maxirna (Shanghai) Pharmaceutical Co., Ltd., priority 2023, dated 2024)

Legend:
[1] = Encapsulation efficiency of the lipid nanoparticle (eGFP mRNA) by Ribogreen method; format: physicochemical; settings: LNP encapsulating eGFP mRNA, ionizable lipid/DOPE/cholesterol/DMG-PEG2000 50/10/48.25/1.25 mol%, N/P 12
Procedure, shortened: (§1)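 LNPs were made by microfluidic mixing of ionizable lipid/DOPE/cholesterol/DMG-PEG2000 (50/10/48.25/1.25 mol%) in ethanol with eGFP mRNA in 20 mM citrate pH 6.1, N/P 12, then ultrafiltered into DPBS and 0.2 µm filtered. Size and PDI by DLS at 173° backscatter; encapsulation by Ribogreen.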

DC2.4 cells = assay: In vitro transfection of cells with eGFP-mRNA lipid nanoparticle (LNP preparation), fluorescence imaging and flow cytometry; format: cell-based, mouse; settings: eGFP positivity rate, DC2.4 cells, 200 ng of mRNA per well, after 24 hours
Procedure, shortened: (§2)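 Mouse bone marrow-derived DC2.4 dendritic cells seeded at 2 × 10^5 cells/well in DMEM with 10% FBS, transfected with eGFP-mRNA LNPs the next day at 37 °C, 5% CO2. After 24 hours, viability, eGFP-positive rate and mean fluorescence intensity read by fluorescence imaging and flow cytometry.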

[2] = as above; format: cell-based, mouse; settings: mouse, dc2.4 cells, 200 ng of mRNA per well, after 24 hours; read-out: Cell viability, %
Procedure, shortened: as §2

[3] = Size and polydispersity index (PDI) of the lipid nanoparticle by dynamic light scattering; format: physicochemical; settings: LNP encapsulating eGFP mRNA, ionizable lipid/DOPE/cholesterol/DMG-PEG2000 50/10/48.25/1.25 mol%, N/P 12; for Particle size: in nm (unit assumed)
Procedure, shortened: as §1

Row | Encapsulation rate, % [1] [%] | PDI [3] | Particle size [3] | Compound | Positive rate, % (DC2.4 cells) [%] | viability at 24 h [2] [%]
1 | 98.13 | 0.11 | 98.73 | CCCCCCCCCCCOC(=O)CCCCN(CCCO)CCCN(CCCCC(=O)OCCCCCCCCCCC)CCCCC(=O)OCCCCCCCCCCC [Example 42, Diundecyl 5,5'-((3-((3-hydroxypropyl)(5-oxo-5-(undecyloxy)pentyl)amino)propyl)azadiyl)dipentanoate] | 96.69 | 94.1
2 | 87.08 | 0.14 | – | CCCCCCCCCCCOC(=O)CCCCN(CCCCO)CCCN(CCCCC(=O)OCCCCCCCCCCC)CCCCC(=O)OCCCCCCCCCCC [Example 43, Diundecyl 5,5'-((3-((4-hydroxybutyl)(5-oxo-5-(undecyloxy)pentyl)amino)propyl)azahexyl)dipentanoate] | 97.48 | 88.2
3 | 99.38 | 0.20 | – | CCCCCCCCCCCCOC(=O)CCCCCN(CCO)CCCN(CCCCCC(=O)OCCCCCCCCCCCC)CCCCCC(=O)OCCCCCCCCCCCC [Example 44, Didodecyl 6,6'-((3-((6-(dodecoxy)-6-oxohexyl)(2-hydroxyethyl)amino)propyl)azahexyl)dihexanoate] | 94.2 | 91.9
4 | 99.60 | 0.20 | 84.66 | CCCCCCCCCCCCOC(=O)CCCCCN(CCCO)CCCN(CCCCCC(=O)OCCCCCCCCCCCC)CCCCCC(=O)OCCCCCCCCCCCC [Example 45, Didodecyl 6,6'-((3-((6-(dodecoxy)-6-oxohexyl)(3-hydroxypropyl)amino)propyl)azahexyl)dihexanoate] | 95.29 | 95
5 | 99.86 | 0.22 | 72.75 | CCCCCCCCCCCCOC(=O)CCCCCN(CCCCO)CCCN(CCCCCC(=O)OCCCCCCCCCCCC)CCCCCC(=O)OCCCCCCCCCCCC [Example 46, Didodecyl 6,6'-((3-((6-(dodecyloxy)-6-oxohexyl)(4-hydroxybutyl)amino)propyl)azanediyl)dihexanoate] | 96.64 | 97.4
6 | 99.77 | 0.26 | 83.85 | CCCCCCCCCCCCOC(=O)CCCCCCN(CCO)CCCN(CCCCCCC(=O)OCCCCCCCCCCCC)CCCCCCC(=O)OCCCCCCCCCCCC [Example 47, Didodecyl 7,7'-((3-((7-(dodecyloxy)-7-oxoheptyl)(2-hydroxyethyl)amino)propyl)azanediyl)diheptanoate] | 97.39 | 88.5
7 | 99.52 | 0.16 | 76.18 | CCCCCCCCCCCCOC(=O)CCCCCCN(CCCO)CCCN(CCCCCCC(=O)OCCCCCCCCCCCC)CCCCCCC(=O)OCCCCCCCCCCCC [Example 48, Didodecyl 7,7'-((3-((7-(dodecyloxy)-7-oxoheptyl)(3-hydroxypropyl)amino)propyl)azanediyl)diheptanoate] | 97.26 | 94
8 | 99.79 | 0.15 | 74.58 | CCCCCCCCCCCCOC(=O)CCCCCCN(CCCCO)CCCN(CCCCCCC(=O)OCCCCCCCCCCCC)CCCCCCC(=O)OCCCCCCCCCCCC [Example 49, Didodecyl 7,7'-((3-((7-(dodecyloxy)-7-oxoheptyl)(4-hydroxybutyl)amino)propyl)azanediyl)diheptanoate] | 97.38 | 91.6
9 | 99.63 | 0.20 | 76.74 | CCCCCCCCCCCCOC(=O)CCCCCCCN(CCO)CCCN(CCCCCCCC(=O)OCCCCCCCCCCCC)CCCCCCCC(=O)OCCCCCCCCCCCC [Example 50, Didodecyl 8,8'-((3-((8-(dodecyloxy)-8-oxooctyl)(2-hydroxyethyl)amino)propyl)azanediyl)dioctanoate] | 99.74 | 90.4
